Reference: patent publication EP3305290B1, “[…] […] FOR USE IN THE TREATMENT OF VIRAL INFECTIONS” (priority 2016, dated 2018)
Entries after “also recorded” stand apart in the source; their conditions may differ. Like-named read-outs stand apart in the source and are kept apart here.

Legend:
[1] = test system: 5'-UTRs of all seven EBOV mRNAs; format: cell-based
[2] = in vitro; settings: human
[3] = test system: Coronaviruses; experiment: organism not typed; format: cell-based; settings: MRC5, read-out: EC50-values
[4] = test system: 5'-UTRs of Ebola mRNAs; experiment: cells; format: cell-based, EBOV; settings: for inhibition at 0.01 µM: Zaire ebolavirus
[5] = test system: poliovirus; experiment: microbe, parasite or virus in culture; format: cell-based, Poliovirus Typ 1 (strain Mahoney; PV); settings: Enterovirus C
[6] = Cell toxicity (MTT) in PBMCs; settings: human
[7] = Cell toxicity (MTT) in hAEC; settings: human
[8] = test system: EBOV; format: cell-based, Zaire Ebola virus (EBOV) strain Mayinga
[9] = test system: EBOV; format: cell-based, Zaire Ebola virus (EBOV) strain Mayinga; remark: listed apart in the source
[10] = test system: 5'-UTR from MERS-CoV; format: cell-based
[11] = test system: HCoV-229E; experiment: microbe, parasite or virus in culture; format: cell-based, Human Coronavirus 229E (HCoV-229E)
[12] = test system: Huh-7 cells; experiment: WST-1 proliferation assay of Huh-7 cells
[13] = test system: primary macrophages; experiment: WST-1 viability assay of primary macrophages
[14] = test system: rhinovirus A1; experiment: organism not typed; format: cell-based, human Rhinovirus 1A (HRV1A); settings: for EC50: MRC5, 24 h
[15] = test system: MERS-CoV; experiment: microbe, parasite or virus in culture; format: cell-based, MERS-CoV (EMC/2012)
[16] = test system: HCoV-229E proteins N and nsp8; experiment: Westernblot analysis, Method 2, HCoV-229E proteins N and nsp8; format: cell-based
[17] = test system: HCoV-229E; experiment: microbe, parasite or virus in culture; format: cell-based, Human Coronavirus 229E (HCoV-229E); settings: Human coronavirus 229E
[18] = test system: 5'-UTR from HCoV-229E; format: cell-based
[19] = test system: Huh-7 cells; experiment: Cell morphology of Huh-7 cells by light microscopy; format: cell-based, human; settings: 10 nM, three days
[20] = test system: EBOV NP protein; format: cell-based, Zaire Ebola virus (EBOV) strain Mayinga
[21] = test system: poliovirus; experiment: microbe, parasite or virus in culture; format: cell-based, Poliovirus Typ 1 (strain Mahoney; PV)
[22] = test system: viral dsRNA and nsp8; experiment: Immunofluorescence of replication/transcription complexes in HCoV-229E infected MRC-5 cells; format: cell-based; settings: MOI 3, 12 h p.i.
[23] = test system: Rhinovirus 1A; experiment: microbe, parasite or virus in culture; format: cell-based, human Rhinovirus 1A (HRV1A); settings: for EC50: Enterovirus, HeLa
[24] = test system: EBOV proteins VP40, NP and GP; format: cell-based, Zaire Ebola virus (EBOV) strain Mayinga
[25] = test system: proto-oncogenic kinase PIM1; experiment: Westernblot of PIM1 in primary macrophages; format: cell-based, human
[26] = test system: MERS-CoV; experiment: microbe, parasite or virus in culture; format: cell-based, MERS-CoV (EMC/2012); remark: listed apart in the source

SMILES: COC(=O)[C@H]1[C@@H](O)[C@@]2(O)c3c(OC)cc(O[C@@H]4O[C@@H]([C@H](O)CO)CO[C@H]4OC)cc3O[C@@]2(c2ccc(OC)cc2)[C@@H]1c1ccccc1 [Silvestrol]
- inhibition of firefly luciferase activity [1]: 23-33%
- reduction of firefly luciferase activity [1]: no significant reduction
- CC50 ([2]; CC50): 1700 nM
- CC50 ([2]; CC50 / cell toxicity): > 1000 nM
- EC50 [3]: 1 to 3 nM
- effect on IRES-driven renilla luciferase activity [4]: no obvious effect
- inhibition at 0.01 µM ([4]; HepG2, read-out: inhibitory effect on firefly luciferase activity): 80%
- inhibition at 0.01 µM ([4]; HepG2, read-out: inhibitory effect on luciferase levels): 30%
- EC50 ([5]; Vero C1008): ~100 nM
- EC50 ([5]; Vero C1008, 24 h, read-out: effective dose (EC50)): 100 nM
- CC50 [6]: 400 nM
- CC50 at 48 h [7]: 500 nM
- reduction of viral titers [8]: up to two orders of magnitude
- antiviral effect (EBOV titer) [9]: comparable antiviral effect
- inhibition of EBOV infection (viral titers) [9]: substantially inhibits EBOV infection; also recorded: inhibits viral propagation efficiently; also recorded: strongly inhibits EBOV replication
- decrease of luciferase activity [10]: ~40%
- EC50 fold lower in MRC-5 cells compared to infected Huh-7 cells [11]: about 10 fold
- selectivity index (CC50/EC50) [11]: 566
- EC50 ([11]; Human coronavirus 229E, MRC5, 24 h): 3 nM
- effect on proliferation of Huh-7 cells ([12]; higher concentrations up to 100 nM, compared to DMSO control): weakly affected; also recorded: weak effects on proliferation
- effect on proliferation of Huh-7 cells ([12]; up to 10 nM Silvestrol, WST-1, 48 h): no obvious effects on proliferation; also recorded: No effect of Silvestrol on proliferation
- IC50 ([13]; Homo sapiens, Primary macrophage, 72 h, read-out: IC50 (WST-1 viability assay), primary macrophages, 0.1 nM - 10 µM, 72 h): ~96 nM
- concentration with essentially no sign of toxicity ([13]; primary macrophages, WST-1): at least 50 nM
- fold less sensitive compared to the analyzed coronaviruses [14]: about 100 fold
- EC50 [14]: 100 nM
- EC50 ([14]; Rhinovirus A): 100 nM
- selectivity index [15]: 166
- EC50 ([15]; Middle East respiratory syndrome-related coronavirus, Epithelial cell, 48 h): 3 nM
- level of N-protein ([16]; HCoV-229E infected primary MRC-5 cells, 10 nM, 12 h and 48 h p.i.): disappears
- HCoV-229E proteins N and nsp8 ([16]; Huh-7 infected cells, 10 nM): detectable
- N-protein ([16]; Huh-7 infected cells, 100 nM): only very low amounts
- nsp8 ([16]; Huh-7 infected cells, 100 nM): completely absent
- EC50 ([17]; Huh-7): 40 nM
- EC50 ([17]; Huh-7, 24 h, read-out: effective dose (EC50)): 40 nM
- decrease of luciferase activity [18]: ~40%
- cell morphology [19]: without changing cell morphology
- expression level of the EBOV NP protein [20]: potent downregulation; also recorded: strongly decreased levels
- fold less sensitive / less efficient compared to MERS-CoV and HCoV-229E [21]: about 10 fold
- EC50 ([21]; Enterovirus C, MRC5, 24 h): 20 nM
- levels of double-stranded viral RNA and nsp8 (RTC markers) ([22]; 10 nM): drop down
- levels of double-stranded viral RNA and nsp8 (RTC markers) ([22]; 100 nM): nearly no viral dsRNA or nsp8 can be detected
- EC50 fold higher compared to HCoV-229E in Huh-7 [23]: about 10 fold
- EC50 [23]: 400 nM
- EC50 ([23]; 24 h, read-out: effective dose (EC50)): 400 nM
- EBOV protein VP40 levels [24]: strong reduction of VP40 levels; also recorded: inhibits the expression
- EBOV proteins NP and GP levels [24]: Downregulation
- cellular protein tubulin level [24]: not affected
- PIM1 levels ([25]; primary macrophages, 10 nM): strongly decreased levels
- duration of inhibitory effect on PIM1 levels ([25]; single dose 10 nM, macrophages): at least 5 days
- cellular β-Actin levels ([25]; single dose 10 nM, macrophages, up to 5 days): without affecting cellular β-Actin levels
- selectivity index (CC50/EC50) [26]: 1538
- EC50 ([26]; Middle East respiratory syndrome-related coronavirus, MRC5, 24 h): 1.3 nM
